Test results as given in ChEMBL document CHEMBL3988442, “University of Dundee, Small-Polar-MMV Screening Library” (2021).

Tested on: Schistosoma mansoni
Assay: High throughput screening of compounds against Schistosoma mansoni motility
Assay type: functional
Parameters: dose or concentration left out as unconfirmed

| Structure (SMILES) | Percent Effect [%] |
| --- | --- |
| CCN1CC(C(=O)NCc2ccnc(-n3ccnc3C)c2)CC1=O (configuration not stated) | -29.1 |
| O=C(CCc1cscn1)NS(=O)(=O)c1ccc2ccccc2c1 | 22.96 |
| Cc1cc(N2CCC(N(C)C(=O)Nc3ccccc3)CC2)nc(C)n1 | -25.09 |
| O=C(c1ccccn1)N1CCCC(c2nccn2CC2CCC2)C1 (configuration not stated) | -9.087 |
| COCC(=O)N1Cc2cnc(Cc3ccc(OC)cc3)nc2C1 | -28.71 |
| CCc1cc(N[C@H]2CC[C@H](O)CC2)n2nc(C)c(C)c2n1 | 12.6 |
| O=C1CC(c2cccs2)c2snc(C(=O)O)c2N1 (configuration not stated) | 18.04 |
| O=C(c1cccc(S(=O)(=O)NCCCc2ncc[nH]2)c1)N1CCOCC1 | -82.46 |
| Cn1ncc2c(NCCOc3ccc(F)cc3)nc(C3CCCC3)nc21 | 106.6 |
| COC(=O)c1cc(OCC2CCC2)cc(C(=O)N[C@@H]2CNCC[C@H]2O)c1 | -27.72 |
| Cc1ncsc1C(=O)N1CCCC(c2noc(C(C)C)n2)C1 (configuration not stated) | -12.34 |
| O=C1CCSCC(C(=O)N2CCCC2)N1 (configuration not stated) | -27.13 |
| Cc1nc(CN2CCC(N(C)Cc3noc(C(C)C)n3)C2)cs1 (configuration not stated) | -19.62 |
| Cc1nc(C)n(CC2CN(CCc3ccncc3)CCO2)n1 (configuration not stated) | -26.46 |
| CC(CN1CCC2(CC1)c1nc[nH]c1CCN2S(C)(=O)=O)C(F)(F)F (configuration not stated) | 2.483 |
| O=C(CCc1ccsc1)N1CCC(Cc2ccc(CO)cc2)C1 (configuration not stated) | 6.677 |
| Cn1cnnc1S(=O)(=O)C1CCN(S(=O)(=O)C2CC2)CC1 | -25.74 |
| CCCN(CCO)C(=O)C1CCC(=O)N(CCc2ccc(Cl)cc2)C1 (configuration not stated) | -16.9 |
| O=C(c1cccnc1)N1C[C@@H]2CC[C@H](C1)N(Cc1ncc[nH]1)C2 | -27.62 |
| CN1C(=O)C(C)(C)COc2cc(NS(=O)(=O)c3ccccc3)ccc21 | 35.25 |
| CCn1c(CN(C)C)nnc1C1CCN(c2ccnc(C)c2)CC1 | 3.943 |
| O=C1NCCCCC1Sc1nnc(C2CC2)n1C1CC1 (configuration not stated) | -44.06 |
| Cc1nc2n(n1)CC(Nc1cc(C(F)(F)F)nc3ncnn13)CC2 (configuration not stated) | -11.7 |

| Structure (SMILES) | Percent Effect [%] |
| --- | --- |
| c1cc(C2CCCN2Cc2nnnn2C2CC2)cs1 (configuration not stated) | -76.39 |
| CNC(=O)CS(=O)(=O)C1CCN(S(=O)(=O)c2c(F)cccc2F)CC1 | -27.81 |
| CC1CCN(CCNC(=O)c2cncnc2C(C)C)CC1 | -17.46 |
| CCN(Cc1cccnc1)CC1CCCO1 (configuration not stated) | -47.82 |
| COc1ccccc1OCC(=O)Nc1ncccc1OC(F)F | 13.82 |
| CS(=O)(=O)NCCNC(=O)C1(c2cccc(Cl)c2)CC1 | 21.58 |
| COc1ccc(F)cc1S(=O)(=O)NCC(c1cccn1C)N(C)C (configuration not stated) | -13.44 |
| Cc1noc(-c2ccc(N3CCCC(C(=O)N4CCSCC4)C3)nc2)n1 (configuration not stated) | 26.74 |
| CCC(C)N(C)S(=O)(=O)c1ccc(CCNC(C)=O)s1 (configuration not stated) | -44.53 |
| CCc1ccccc1CN1CC[C@@H](NC(=O)c2cccnc2)[C@H](O)C1 | -49.14 |
| CC(NC(=O)C1=NN(C)C(=O)CC1)c1ccc(F)cc1F (configuration not stated) | -36.47 |
| CCSc1cc(C(=O)NCCC(=O)Nc2ccccn2)ccn1 | -76.69 |
| CCN(CCn1cccn1)Cc1nc(-c2cccs2)oc1C | -16.9 |
| COCCNS(=O)(=O)c1cccc2c1CN(C(=O)c1ccccc1)CC2 | 10.23 |
| NC(=O)c1cccc(CC2CCN(C(=O)CCCN3CCOCC3)C2)c1 (configuration not stated) | -44.07 |
| COCC(NC(=O)c1ccc[nH]1)c1cccc(C(F)(F)F)c1 (configuration not stated) | -105.3 |
| Cc1cc(-c2nnc(SCC(=O)O)n2C(C)c2ccccc2)nn1C (configuration not stated) | -38.23 |
| O=C(NCCn1ccc(-c2ccncc2)n1)c1ccncc1 | -35.45 |
| CC(C)S(=O)(=O)NCC1CCCN(C(=O)c2ccc3c(c2)OCCO3)C1 (configuration not stated) | -47.11 |
| CC(CN1CCOCC1)NCc1nncn1C1CCCCC1 (configuration not stated) | 0.8698 |
| COCCN(Cc1ccc(F)cc1Cl)C(=O)c1cccc[n+]1[O-] | -17.57 |
| CCCNC(=O)N1CCC(Oc2cc(C)ccc2F)(C(=O)O)CC1 | 27.97 |
| Cc1cc(N2CCN3CCCCC3C2)n2nc(C)c(C)c2n1 (configuration not stated) | -7.768 |

| Structure (SMILES) | Percent Effect [%] |
| --- | --- |
| Cc1nn(C)c(N(C)C)c1CNCC(O)c1ccccc1 (configuration not stated) | -48.71 |
| Cc1ccn(-c2ccccc2NCc2ccccn2)n1 | -12.81 |
| COc1cccc(OCc2cc(C(=O)NC[C@H]3CCCN3)n[nH]2)c1 | -4.692 |
| CC(OCC(F)(F)F)C(=O)N1CCN(S(C)(=O)=O)CC1 (configuration not stated) | -54.53 |
| O=C(CCn1cnnc1)N1CCCC(c2ncc[nH]2)C1 (configuration not stated) | -28.96 |
| O=C(c1cccnc1)N1C[C@@H]2CC[C@H](C1)N(Cc1cccc(Cl)c1F)C2 | 6.232 |
| Cc1nc(CN2CCCC(N(C)CCc3cccs3)C2)no1 (configuration not stated) | -59.95 |
| CCN1CC2(CCC1=O)CCN(C(=O)c1ccc(Cl)cc1O)CC2 | -8.652 |
| CNC(=O)CSc1cnn(CC(=O)Nc2cccc(Cl)c2C)c(=O)c1Cl | -12.29 |
| CCc1n[nH]c(C2CN(CC(=O)NCCc3ccsc3)CCO2)n1 (configuration not stated) | -30.25 |
| NC(=O)CN1CCCN(C(=O)c2ccn(-c3ccccc3)n2)CC1 | -17.53 |
| CCCNCC1(O)CCCN(Cc2cccc(C)c2)C1=O (configuration not stated) | -43.91 |
| Cc1cc(C)n(CC2CCCN2C(=O)c2ccc3[nH]nnc3c2)n1 (configuration not stated) | -6.294 |
| COc1ccccc1CC(=O)NCCCN1CCCC1C(=O)N(C)C (configuration not stated) | -6.29 |
| CC1CCCN(CCNC(=O)c2cncnc2C(C)C)C1 (configuration not stated) | -12.57 |
| CCn1nc(C(C)C)cc1C(=O)NCCCOC | -51.54 |
| CSc1ccccc1CN1CCn2nc(CNC(C)=O)cc2C1 | -11.64 |
| CN(C)CCN(Cc1ccc(Cl)cc1)C(=O)c1cc[nH]n1 | 46.97 |
| Cc1cc(NC(=O)CN2CCCC2c2noc(C3CC3)n2)no1 (configuration not stated) | -30.12 |
| O=C(c1cccc(S(=O)(=O)NCCCc2ccco2)c1)N1CCOCC1 | -44.89 |
| O=C(c1cc(Cl)c2c(c1)OCO2)N1CCN(c2ccccn2)CC1 | -95.4 |
| Cc1nc[nH]c1CN1C[C@@H]2CC[C@H](C1)N(C(=O)CCNS(C)(=O)=O)C2 | 1.774 |
| CCC1CN(C(=O)c2ccc(=O)[nH]c2)CCC(=O)N1Cc1ccccc1 (configuration not stated) | -27.12 |

| Structure (SMILES) | Percent Effect [%] |
| --- | --- |
| CC(OCC(F)(F)F)C(=O)N1CCCCC1 (configuration not stated) | -17.04 |
| O=C(NCC1(CO)CC1)c1cccc2ccccc12 | -62.45 |
| CC(COc1ccccc1)NCc1nc(-c2cccnc2)no1 (configuration not stated) | -35.35 |
| O=C(NCC(Cc1cccc(F)c1)N1CCCC1=O)c1ccccc1 (configuration not stated) | -23.79 |
| Cc1ccc(F)c(C(=O)N2CCN(S(C)(=O)=O)[C@@H](C)C2)c1 | -35.69 |
| COc1ccccc1OCC(=O)Nc1ncccc1Cl | -2.169 |
| Cc1ncsc1CCC(=O)NCc1cc2n(n1)CCN(C(=O)N(C)C)C2 | 10.91 |
| O=C(c1ccc(Br)s1)N1CCN(Cc2ccc(OC(F)(F)F)cc2)CC1 | 31.43 |
| CC(C)(C)NC(=O)CNC(=O)CCc1ccccc1Br | 20.34 |
| COc1ncccc1C(=O)NCC1Cc2ccccc2O1 (configuration not stated) | -86.67 |
| CCC(=O)N1CCC(c2nnc(Cn3cccn3)n2C2CC2)CC1 | -15.52 |
| Cc1ccc(C(=O)NC(C)CN2CCCC2=O)c(=O)[nH]1 (configuration not stated) | -45.23 |
| CC(C)(C)C(=O)NCCC(=O)NC(C)(C)c1ccc2c(c1)OCCO2 | -18.95 |
| CN(CCCNc1cc(N2CCCC2CO)ncn1)S(C)(=O)=O (configuration not stated) | -51.96 |
| CCc1ncncc1C(=O)NCCN1CCC(C)CC1 | -31.56 |
| O=c1nc(SCc2ccncc2)c2c(n1CCO)CCCC2 | -51.22 |
| COCC(NC(=O)c1cnn(C)c1)c1cccc(C(F)(F)F)c1 (configuration not stated) | -48.05 |
| COc1ccccc1Oc1ncccc1CNC(=O)[C@@H](C)NC(C)=O | -37.6 |
| COC(=O)c1sccc1S(=O)(=O)N1CCC(Oc2ncccc2Cl)CC1 | -59.58 |
| Cc1nccn1-c1cc(CNC(=O)c2ccccn2)ccn1 | -81.26 |
| CN(C)C(=O)N1CCn2nc(CNC(=O)CCC(F)(F)F)cc2C1 | 2 |
| O=C1CCSCC(C(=O)N2CCN(C3CCCCC3)CC2)N1 (configuration not stated) | -48.25 |
| CC(C)(CO)NC(=O)C1CCC(=O)N(Cc2ccc(Cl)cc2)C1 (configuration not stated) | -0.822 |

| Structure (SMILES) | Percent Effect [%] |
| --- | --- |
| CCOCCC(=O)N1CCCC(c2ncc[nH]2)C1 (configuration not stated) | -61.02 |
| CC(C)c1nc(CN(C)C2CCN(Cc3nc(C4CC4)no3)C2)no1 (configuration not stated) | -10.87 |
| CN1CCC(c2nnc(CN3CCC(O)CC3)n2C)CC1 | -3.365 |
| CCc1ccccc1C(=O)N1CCN(S(C)(=O)=O)[C@@H](C)C1 | -27.03 |
| COc1ccc(NC(C)C(=O)N2CCN(Cc3ccccc3)CC2)cn1 (configuration not stated) | -29.98 |
| COc1ccc(CN(C)C(=O)CCc2c(C)nc(C)[nH]c2=O)cc1OC | -19.42 |
| Cc1ccn(-c2ccccc2NCc2ncc[nH]2)n1 | -21.01 |
| COC(=O)c1sccc1S(=O)(=O)N1CCC(Oc2cccnn2)CC1 | -55.3 |
| COc1ccccc1NC(=O)NCC(O)(c1ccccc1)C1CC1 (configuration not stated) | 57.61 |
| COc1cccc2c1OCC(C(=O)N(C)CCCc1cnn(C)c1)C2 (configuration not stated) | -37.39 |
| CNC(=O)COc1ccc(CNCc2ccc(F)cc2F)cc1 | -31.94 |
| CN(CCCc1cnn(C)c1)C(=O)C1COc2ccccc2C1 (configuration not stated) | -70.43 |
| CSCC(=O)N1C[C@H]2CC[C@@H]1CN(Cc1ccccc1)C2 | 13.06 |
| O=S(=O)(NCC1(O)CCOc2ccccc21)c1cccs1 (configuration not stated) | -21.06 |
| Cc1csc(N2CCN(CCc3ccccn3)CC2C)n1 (configuration not stated) | -16.94 |
| Cc1nc(C(C)(C)NC(=O)Nc2ccccc2)no1 | -55.91 |
| C[C@@H]1CN(C2(C(=O)N3CCCCCC3)Cc3ccccc3C2)C[C@H](C)O1 | 12.64 |
| CCOc1cc(C)nc(N2CCN(Cc3nccn3C)CC2)n1 | -40.52 |
| CC(C)S(=O)(=O)NCC1CCCN(C(=O)c2cccnc2)C1 (configuration not stated) | -61.29 |
| COc1cccc(NC(=O)N(CCO)Cc2ccsc2)c1 | -62.57 |
